Data reported in patent US11999746B2, “Compounds” (GlaxoSmithKline Intellectual Property Development Limited, priority 2014, dated 2024).
Counter-ions that a name gives are not always drawn.

How the values were obtained:
Lp-PLA2 in human plasma = molecular target: T1, Lp-PLA2 in human plasma (Homo sapiens, UniProt Q13093); assay: (3b) Lp-PLA2 human plasma alternative Thio-PAF assay; format: biochemical; settings: (3b) alternative Thio-PAF assay, pooled human plasma; Examples of 266-412 were tested here; read-out: pIC50 in the Lp-PLA2 human plasma assay (converted)
T1 construct: from tissue; host or cells: pooled human plasma
T1 sequence (Q13093 22-441): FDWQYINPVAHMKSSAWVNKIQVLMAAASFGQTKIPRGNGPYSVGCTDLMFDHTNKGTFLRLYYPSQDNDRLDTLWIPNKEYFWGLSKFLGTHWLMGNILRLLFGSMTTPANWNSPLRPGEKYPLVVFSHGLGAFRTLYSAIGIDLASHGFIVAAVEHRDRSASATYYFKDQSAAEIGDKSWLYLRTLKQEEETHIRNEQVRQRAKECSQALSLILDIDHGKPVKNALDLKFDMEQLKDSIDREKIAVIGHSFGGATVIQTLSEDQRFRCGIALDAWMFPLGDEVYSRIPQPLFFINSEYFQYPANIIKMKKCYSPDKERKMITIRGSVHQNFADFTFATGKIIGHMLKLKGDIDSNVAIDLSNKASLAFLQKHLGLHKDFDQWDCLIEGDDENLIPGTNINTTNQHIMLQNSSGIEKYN
Method in brief: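 Pooled human plasma was preincubated with compound for 15 min at RT. Substrate solution (2 mM 2-thio-PAF, 52 μM CPM, 2.5 mM NEM in 50 mM HEPES pH 7.4, 150 mM NaCl, 1 mM CHAPS; pre-addition concentrations) was added, and the reaction was quenched with 5% TFA after 3 min. Fluorescence was read at ex 380/em 485 nm and fitted to give pIC50.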

[1] = molecular target: T2, recombinant human Lp-PLA2 (Homo sapiens, UniProt Q13093); assay: (1b) hrThioPAF assay, recombinant human Lp-PLA2; format: biochemical; settings: Examples 266-412 were tested here, one experiment or average of multiple experiments, read-out: rhLp-PLA2 (pIC50) (converted)
T2 sequence (Q13093 22-441): T1 sequence (Q13093 22-441)
Method in brief: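 Fluorogenic assay: 20 pM rhLp-PLA2 in 50 mM HEPES pH 7.4, 150 mM NaCl, 1 mM CHAPS with 1:3 serially diluted compounds; substrate mix of 40 μM 2-thio-PAF, 40 μM CPM, 400 μM NEM (pre-addition levels). 20 min at 25 °C in the dark; fluorescence ex 380/em 485 nm, pIC50 by curve fitting.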

Row | SMILES | IC50 (Lp-PLA2 in human plasma) [nM] | IC50 [1] [nM]
1 | O=C([C@@H]1CC(F)(F)CN1)N1CCN2c3cc(OCc4ccc(F)c(F)c4)nc(=O)n3CC2C1 (stereo partly drawn) [Example E342, 7-((3,4-Difluorobenzyl)oxy)-2-((S)-4,4-difluoropyrrolidin-2-carbonyl)-3,4,11,11a-tetrahydro-1H-pyrazino[1,2′:3,4]imidazo[1,2-c]pyrimidin-9(2H)-one] | ≤ 100 | ≤ 10000
2 | O=C([C@H]1CCCN1)N1CCN2c3cc(OCc4ccc(F)c(F)c4)nc(=O)n3CC2C1 (stereo partly drawn) [Example E343, 7-((3,4-Difluorobenzyl)oxy)-2-((R)-pyrrolidine-2-carbonyl)-3,4,11,11a-tetrahydro-1H-pyrazino[1,2′:3,4]imidazo[1,2-c]pyrimidin-9(2H)-one] | ≤ 100 | ≤ 10000
3 | NC1(C(=O)N2CCN3c4cc(OCc5ccc(F)c(F)c5)nc(=O)n4CC3C2)CCC1 (stereo not shown) [Example E344, 2-(1-Aminocyclobutanecarbonyl)-7-((3,4-difluorobenzyl)oxy)-3,4,11,11a-tetrahydro-1H-pyrazino[1,2′:3,4]imidazo[1,2-c]pyrimidin-9(2H)-one] | ≤ 100 | ≤ 10000
4 | NC1(C(=O)N2CCN3c4cc(OCc5ccc(F)c(F)c5)nc(=O)n4CC3C2)CCOCC1 (stereo not shown) [Example E345, 2-(4-Aminotetrahydro-2H-pyran-4-carbonyl)-7-((3,4-difluorobenzyl)oxy)-3,4,11,11a-tetrahydro-1H-pyrazino[1,2′:3,4]imidazo[1,2-c]pyrimidin-9(2H)-one] | ≤ 100 | ≤ 10000
5 | CN(C)CC(=O)N1CCN2c3cc(OCc4ccc(F)c(F)c4)nc(=O)n3CC2C1 (stereo not shown) [Example E346, 7-((3,4-Difluorobenzyl)oxy)-2-(2-(dimethylamino)acetyl)-3,4,11,11a-tetrahydro-1H-pyrazino[1,2′:3,4]imidazo[1,2-c]pyrimidin-9(2H)-one] | ≤ 100 | ≤ 10000
6 | NC1(C(=O)N2CCN3c4cc(OCc5ccc(F)c(F)c5)nc(=O)n4CC3C2)CCCCC1 (stereo not shown) [Example E347, 2-(1-Aminocyclohexanecarbonyl)-7-((3,4-difluorobenzyl)oxy)-3,4,11,11a-tetrahydro-1H-pyrazino[1,2′:3,4]imidazo[1,2-c]pyrimidin-9(2H)-one] | ≤ 100 | ≤ 10000
7 | N#Cc1cc(COc2cc3n(c(=O)n2)CC2CNC(=O)CN32)ccc1F (stereo not shown) [Example E349, 5-(((3,9-Dioxo-2,3,4,9,11,11a-hexahydro-1H-pyrazino[1′,2′:3,4]imidazo[1,2-c]pyrimidin-7-yl)oxy)methyl)-2-fluorobenzonitrile] | ≤ 100 | ≤ 10000
8 | O=C1CN2c3cc(OCc4cc(F)c(Oc5ccnc(C(F)(F)F)c5)c(F)c4)nc(=O)n3CC2CN1 (stereo not shown) [Example E351, 7-((3,5-Difluoro-4-((2-(trifluoromethyl)pyridin-4-yl)oxy)benzyl)oxy)-11,11a-dihydro-1H-pyrazino[1′,2′:3,4]imidazo[1,2-c]pyrimidine-3,9(2H,4H)-dione] | ≤ 100 | ≤ 1
9 | O=C1CN2c3cc(OCc4cc(F)c(Oc5cncc(C(F)(F)F)c5)c(F)c4)nc(=O)n3CC2CN1 (stereo not shown) [Example E352, 7-((3,5-Difluoro-4-((5-(trifluoromethyl)pyridin-3-yl)oxy)benzyl)oxy)-11,11a-dihydro-1H-pyrazino[1,2′:3,4]imidazo[1,2-c]pyrimidine-3,9(2H,4H)-dione] | ≤ 100 | 0.501
10 | O=C1CN2c3cc(OCc4ccc(F)c(F)c4)nc(=O)n3CC2CN1 (stereo not shown) [Example E356, 7-((3,4-difluorobenzyl)oxy)-11,11a-dihydro-1H-pyrazino[1′,2′:3,4]imidazo[1,2-c]pyrimidine-3,9(2H,4H)-dione] | ≤ 100 | ≤ 10000
11 | CN1CC2Cn3c(cc(OCc4ccc(F)c(C#N)c4)nc3=O)N2CC1=O (stereo not shown) [Example E357, 2-Fluoro-5-(((2-methyl-3,9-dioxo-2,3,4,9,11,11a-hexahydro-1H-pyrazino[1,2′:3,4]imidazo[1,2-c]pyrimidin-7-yl)oxy)methyl)benzonitrile] | ≤ 100 | ≤ 10000
12 | O=C1CN2c3cc(OCc4ccc(F)c(F)c4)nc(=O)n3CC2CN1CC(F)(F)F (stereo not shown) [Example E358, 7-((3,4-Difluorobenzyl)oxy)-2-(2,2,2-trifluoroethyl)-11,11a-dihydro-1Hpyrazino[1′,2′:3,4] imidazo[1,2-c]pyrimidine-3,9(2H,4H)-dione] | ≤ 100 | ≤ 10000
13 | CN1CC2Cn3c(cc(OCc4ccc(F)c(F)c4)nc3=O)N2CC1=O (stereo not shown) [Example E359, 7-((3,4-Difluorobenzyl)oxy)-2-methyl-11,11a-dihydro-1H-pyrazino[1,2′:3,4]imidazo[1,2-c]pyrimidine-3,9(2H,4H)-dione] | ≤ 100 | ≤ 10000
14 | Cc1ccc(Oc2c(F)cc(COc3cc4n(c(=O)n3)CC3CN(C)C(=O)CN43)cc2F)cn1 (stereo not shown) [Example E360, 7-((3,5-difluoro-4-((6-methylpyridin-3-yl)oxy)benzyl)oxy)-2-methyl-11,11a-dihydro-1H-pyrazino[1′,2′:3,4]imidazo[1,2-c]pyrimidine-3,9(2H,4H)-dione, trifluoroacetic acid salt] | ≤ 100 | ≤ 10000
15 | N#Cc1cc(COc2cc3n(c(=O)n2)CC2CSCCN32)ccc1F (stereo not shown) [Example E364, 2-Fluoro-5-(((9-oxo-1,3,4,9,11,11a-hexahydropyrimido[6′,1′:2,3]imidazo[5,1-c][1,4]thiazin-7-yl)oxy)methyl)benzonitrile] | ≤ 100 | ≤ 100
16 | N#Cc1cc(COc2cc3n(c(=O)n2)CC2C[S+]([O-])CCN32)ccc1F (stereo not shown) [Example E366, 2-Fluoro-5-(((2-oxido-9-oxo-1,3,4,9,11,11a-hexahydropyrimido[6′,1′:2,3]imidazo[5,1-c][1,4]thiazin-7-yl)oxy)methyl)benzonitrile] | ≤ 100 | ≤ 10000
17 | N#Cc1cc(COc2cc3n(c(=O)n2)CC2CS(=O)(=O)CCN32)ccc1F (stereo not shown) [Example E367, 5-(((2,2-Dioxido-9-oxo-1,3,4,9,11,11a-hexahydropyrimido[6′,1′:2,3]imidazo[5,1-c][1,4]thiazin-7-yl)oxy)methyl)-2-fluorobenzonitrile] | ≤ 100 | ≤ 10000
18 | O=c1nc(OCc2cc(F)c(Oc3ccnc(C(F)(F)F)c3)c(F)c2)cc2n1CC1CSCCN21 (stereo not shown) [Example E368, 7-((3,5-Difluoro-4-((2-(trifluoromethyl)pyridin-4-yl)oxy)benzyl)oxy) 3,4,11,11a-tetrahydropyrimido[6′,1′:2,3]imidazo[5,1-c][1,4]thiazin-9(1H)-one] | ≤ 100 | ≤ 1
19 | O=c1nc(OCc2cc(F)c(Oc3ccnc(C(F)(F)F)c3)c(F)c2)cc2n1CC1C[S+]([O-])CCN21 (stereo not shown) [Example E369, 7-((3,5-Difluoro-4-((2-(trifluoromethyl)pyridin-4-yl)oxy)benzyl)oxy)-3,4,11,11a-tetrahydropyrimido[6′,1′:2,3]imidazo[5,1-c][1,4]thiazin-9(1H)-one 2-oxide] | ≤ 100 | ≤ 10000
20 | O=c1nc(OCc2cc(F)c(Oc3ccnc(C(F)(F)F)c3)c(F)c2)cc2n1CC1CS(=O)(=O)CCN21 (stereo not shown) [Example E370, 7-((3,5-Difluoro-4-((2-(trifluoromethyl)pyridin-4-yl)oxy)benzyl)oxy)-3,4,11,11a-tetrahydropyrimido[6′,1′:2,3]imidazo[5,1-c][1,4]thiazin-9(1H)-one-2,2-dioxide] | ≤ 100 | ≤ 10000
21 | O=c1nc(OCc2cc(F)c(Oc3cncc(C(F)(F)F)c3)c(F)c2)cc2n1CC1CSCCN21 (stereo not shown) [Example E371, 7-((3,5-Difluoro-4-((5-(trifluoromethyl)pyridin-3-yl)oxy)benzyl)oxy)-3,4,11,11a-tetrahydropyrimido[6′,1′:2,3]imidazo[5,1-c][1,4]thiazin-9(1H)-one] | ≤ 100 | ≤ 1
22 | O=c1nc(OCc2cc(F)c(Oc3cncc(C(F)(F)F)c3)c(F)c2)cc2n1CC1C[S+]([O-])CCN21 (stereo not shown) [Example E372, 7-((3,5-Difluoro-4-((5-(trifluoromethyl)pyridin-3-yl)oxy)benzyl)oxy)-3,4,11,11a-tetrahydropyrimido[6′,1′:2,3]imidazo[5,1-c][1,4]thiazin-9(1H)-one 2-oxide] | ≤ 100 | ≤ 1
23 | O=c1nc(OCc2cc(F)c(Oc3cncc(C(F)(F)F)c3)c(F)c2)cc2n1CC1CS(=O)(=O)CCN21 (stereo not shown) [Example E373, 7-((3,5-Difluoro-4-((5-(trifluoromethyl)pyridin-3-yl)oxy)benzyl)oxy)-3,4,11,11a-tetrahydropyrimido[6′,1′:2,3]imidazo[5,1-c][1,4]thiazin-9(1H)-one 2,2-dioxide] | ≤ 100 | ≤ 10000
